The text below walks through data of paper PMC12118337, “Development of a Peptide Inhibitor Targeting the C‐SH2 Domain of the SHP2 Phosphatase” (Chembiochem, 2025).

One assay deals with T1, SHP2 N‐SH2 domain (Homo sapiens, UniProt Q06124).
T1 construct: SHP2 N-SH2 domain (1–105), C-SH2 domain (106–220), PTP domain (224–541) and; His6 (pETM22 vector) (N, cleaved yes); made in house; host or cells: E. coli BL21(DE3)
T1 sequence (Q06124 1-105): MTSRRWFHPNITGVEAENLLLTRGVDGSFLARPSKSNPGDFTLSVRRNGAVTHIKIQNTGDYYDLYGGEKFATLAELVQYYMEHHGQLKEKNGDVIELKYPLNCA
The assay can be described thus: Fluorescence polarization (FP) binding assay, SHP2 N-SH2 domain. The conditions noted are these: 100 nM FAM-labelled peptide, increasing N-SH2 protein, 50 mM HEPES pH 7.5, 150 mM NaCl, 1 mM EDTA, 0.05% Tween 20, FP at 10 min, three independent experiments in technical triplicates, read-out: K D ± SEM, N‐SH2 (FP). Here is the method: (§1) buffer and stored in 5 mL binding buffer at 4°C. His-tagged 3C protease (0.5 mg; EMBL) was added to the pooled eluted fractions and dialysed using Spectra Por Dialysis Tubing (MWCO 6-8 kDa, 23 mm; Spectrum Labs) in 1 L of binding buffer at 4°C for 3 hours, then overnight in fresh buffer. A new column was prepared by loading 2 mL Ni-NTA Agarose (Invitrogen) as a 50% slurry in EtOH. The column was washed with 10 mL H2O to remove the EtOH and equilibrated with 10 mL binding buffer. The protein/3C protease mixture was loaded onto the column and incubated for 1 hour at 4°C on a rocker. The flow through containing the protein was collected, the column was washed with 100 mL binding buffer and the 3C protease was eluted with 5 mL elution buffer. Protein purification was monitored by SDS-PAGE using NuPAGE 4-12% Bis-Tris Protein Gels (Invitrogen) run in MOPS buffer (50 mM MOPS, 50 mM Tris-HCl pH 7.7, 1 mM EDTA, 0.1% SDS) followed by Coomassie staining using Coomassie Brilliant Blue (Roth). The purified protein was dialysed into the final storage buffer (50 mM HEPES pH 7.5, 150 mM NaCl, 2 mM DTT, 20% glycerol). Aliquots were prepared and stored at -80°C until required. […]
(§2) 4. Fluorescence polarization
(§3) Fluorescence polarization (FP) was used to measure the binding of FAM-labelled peptides to the SHP2 C-SH2, SHP2 N-SH2, SHP2 PTP, CSK SH2 or Src SH2 domains. Each peptide was added to increasing concentrations of SHP2 C-SH2, SHP2 N-SH2, SHP2 PTP, CSK SH2 or Src SH2 protein in FP buffer (50 mM HEPES pH 7.5, 150 mM NaCl, 1 mM EDTA, 0.05% Tween 20) to give a final peptide […]
(§4) concentration of 100 nM in a final volume of 200 µL. For baseline subtraction, each peptide was added to FP buffer, instead of protein, with a final peptide concentration of 100 nM in a final volume of 200 µL. Samples were mixed gently then 3 x 60 µL of each sample was transferred into triplicate wells in a 96-well plate (OptiPlate-96 F Black; PerkinElmer). The FP was immediately measured on a Synergy H1 Microplate Reader (BioTek) with the excitation and emission monitored at 485 nm and 528 nm, respectively, over 30 minutes. FP values were automatically calculated by the Gen5 3.03 (BioTek) software associated with the microplate reader. Data were analysed in Excel 2016 by subtracting baseline values from FP values at 10 minutes. Data were then further analysed in GraphPad Prism 6 by plotting the baseline subtracted FP values against the protein concentration and fitting the data to a variable slope model of non-linear regression to obtain the KD values. Data are from three independent experiments, each performed in technical triplicates.
(§5) 5. Isothermal titration calorimetry […]
(§6) Analysis Software (Malvern Panalytical). For the data analysis, a 1:1 binding stoichiometry between the Ac-ITSM(pTyr) and SH2 domain was assumed. ITC measurements were performed once.

The next assay concerns the target T2, SHP2 C‐SH2 domain (Homo sapiens, UniProt Q06124).
T2 construct: SHP2 N-SH2 domain (1–105), C-SH2 domain (106–220), PTP domain (224–541) and; His6 (pETM22 vector) (N, cleaved yes); made in house; host or cells: E. coli BL21(DE3)
T2 sequence (Q06124 106-220): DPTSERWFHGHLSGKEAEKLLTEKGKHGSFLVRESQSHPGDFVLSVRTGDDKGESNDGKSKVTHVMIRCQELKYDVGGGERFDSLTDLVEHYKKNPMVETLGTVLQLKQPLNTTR
The assay can be described thus: Fluorescence polarization (FP) binding assay, SHP2 C-SH2 domain. Particulars: 100 nM FAM-labelled peptide, increasing C-SH2 protein, 50 mM HEPES pH 7.5, 150 mM NaCl, 1 mM EDTA, 0.05% Tween 20, FP at 10 min, three independent experiments in technical triplicates, read-out: K D ± SEM, C‐SH2 (FP). The procedure: as §1, §2, §3, §4, §5, §6

Non-standard residues stand in square brackets, D forms with d. Residues, ends and D or L forms follow the SMILES beside them. *: point of attachment. 5FAM = O=C1OC2(c3ccc(O)cc3Oc3cc(O)ccc32)c2ccc(C(=O)*)cc21; pY = N[C@@H](Cc1ccc(OP(=O)(O)O)cc1)C(=O)O

Regarding `CC[C@H](C)[C@H](NC(=O)[C@@H](NC(=O)[C@H](C)NC(=O)[C@H](Cc1ccc(OP(=O)(O)O)cc1)NC(=O)[C@H](CCC(=O)O)NC(=O)[C@@H](NC(=O)[C@H](CCC(N)=O)NC(=O)[C@H](CCC(=O)O)NC(=O)c1ccc2c(c1)C(=O)OC21c2ccc(O)cc2Oc2cc(O)ccc21)[C@@H](C)O)[C@@H](C)O)C(=O)N[C@@H](CCCCN)C(=O)N[C@@H](Cc1ccccc1)C(=O)N1CCC[C@H]1C(N)=O` [compound 9] (5FAM-EQTE[pY]ATIKFP-NH2), the Kd at SHP2 N‐SH2 domain was above 2000 nM; on SHP2 C‐SH2 domain, 72 ± 2.61 nM.

On to `CC(C)[C@H](NC(=O)[C@@H](NC(=O)[C@H](C)NC(=O)[C@H](Cc1ccc(OP(=O)(O)O)cc1)NC(=O)[C@H](CCC(=O)O)NC(=O)[C@@H](NC(=O)[C@H](CCC(N)=O)NC(=O)[C@H](CCC(=O)O)NC(=O)c1ccc2c(c1)C(=O)OC21c2ccc(O)cc2Oc2cc(O)ccc21)[C@@H](C)O)[C@@H](C)O)C(=O)N[C@@H](CCCCN)C(=O)N[C@@H](Cc1ccccc1)C(=O)N1CCC[C@H]1C(N)=O` [compound 10] (5FAM-EQTE[pY]ATVKFP-NH2), for which the values for the Kd at SHP2 N‐SH2 domain and at SHP2 C‐SH2 domain were above 3000 nM and 209 ± 14.4 nM, respectively.

For `CC[C@H](C)[C@H](NC(=O)[C@@H](NC(=O)[C@H](C)NC(=O)[C@H](Cc1ccc(OP(=O)(O)O)cc1)NC(=O)[C@H](CCC(=O)O)NC(=O)[C@@H](NC(=O)[C@H](CCC(N)=O)NC(=O)c1ccc2c(c1)C(=O)OC21c2ccc(O)cc2Oc2cc(O)ccc21)[C@@H](C)O)[C@@H](C)O)C(=O)N[C@H](C(=O)N[C@@H](Cc1ccccc1)C(=O)N1CCC[C@H]1C(N)=O)C(C)C` [compound 11] (5FAM-QTE[pY]ATIVFP-NH2), the values for the Kd on SHP2 N‐SH2 domain and on SHP2 C‐SH2 domain were 204 ± 10.4 nM and 40.8 ± 0.96 nM, respectively.

For the molecule `CC[C@H](C)[C@H](NC(=O)[C@@H](NC(=O)[C@H](C)NC(=O)[C@H](Cc1ccc(OP(=O)(O)O)cc1)NC(=O)[C@H](CCC(=O)O)NC(=O)[C@@H](NC(=O)[C@H](CCC(N)=O)NC(=O)c1ccc2c(c1)C(=O)OC21c2ccc(O)cc2Oc2cc(O)ccc21)[C@@H](C)O)[C@@H](C)O)C(=O)N[C@@H](CCCCN)C(=O)N[C@@H](Cc1c[nH]c2ccccc12)C(=O)N1CCC[C@H]1C(N)=O` [compound 13] (5FAM-QTE[pY]ATIKWP-NH2), the Kd on SHP2 N‐SH2 domain was 368 ± 40 nM; on SHP2 C‐SH2 domain it was 46.8 ± 1.29 nM.

As for `CC[C@H](C)[C@H](NC(=O)[C@@H](NC(=O)[C@H](C)NC(=O)[C@H](Cc1ccc(OP(=O)(O)O)cc1)NC(=O)[C@H](CCC(=O)O)NC(=O)[C@@H](NC(=O)[C@H](CCC(N)=O)NC(=O)c1ccc2c(c1)C(=O)OC21c2ccc(O)cc2Oc2cc(O)ccc21)[C@@H](C)O)C(C)C)C(=O)N[C@@H](CCCCN)C(=O)N[C@@H](Cc1ccccc1)C(=O)N1CCC[C@H]1C(N)=O` [compound 14] (5FAM-QTE[pY]AVIKFP-NH2), the Kd at SHP2 N‐SH2 domain stood at 840 ± 228 nM; on SHP2 C‐SH2 domain it was 80.2 ± 4.32 nM.

With `CC[C@H](C)[C@H](NC(=O)[C@@H](NC(=O)[C@H](C)NC(=O)[C@H](Cc1ccc(OP(=O)(O)O)cc1)NC(=O)[C@H](CCC(=O)O)NC(=O)[C@@H](NC(=O)[C@H](CCCCN)NC(=O)c1ccc2c(c1)C(=O)OC21c2ccc(O)cc2Oc2cc(O)ccc21)[C@@H](C)O)[C@@H](C)O)C(=O)N[C@@H](CCCCN)C(=O)N[C@@H](Cc1ccccc1)C(=O)N1CCC[C@H]1C(N)=O` [compound 15] (5FAM-KTE[pY]ATIKFP-NH2), the results for the Kd at SHP2 N‐SH2 domain and on SHP2 C‐SH2 domain were 1550 ± 528 nM and 61.5 ± 1.83 nM, respectively.

For the molecule `CC[C@H](C)[C@H](NC(=O)[C@@H](NC(=O)[C@H](C)NC(=O)[C@H](Cc1ccc(OP(=O)(O)O)cc1)NC(=O)[C@H](CCC(=O)O)NC(=O)[C@@H](NC(=O)[C@H](CCC(N)=O)NC(=O)c1ccc2c(c1)C(=O)OC21c2ccc(O)cc2Oc2cc(O)ccc21)[C@@H](C)O)[C@@H](C)O)C(=O)N[C@@H](CCCCN)C(=O)N[C@@H](Cc1ccccc1)C(=O)N1CCC[C@H]1C(N)=O` [compound 16] (5FAM-QTE[pY]ATIKFP-NH2), the values for the Kd at SHP2 N‐SH2 domain and at SHP2 C‐SH2 domain were 1090 ± 199 nM and 86 ± 2.43 nM, respectively.

On to `CC[C@H](C)[C@H](NC(=O)[C@@H](NC(=O)[C@H](C)NC(=O)[C@H](Cc1ccc(OP(=O)(O)O)cc1)NC(=O)[C@H](CCC(=O)O)NC(=O)[C@@H](NC(=O)[C@H](CCC(N)=O)NC(=O)c1ccc2c(c1)C(=O)OC21c2ccc(O)cc2Oc2cc(O)ccc21)[C@@H](C)O)[C@@H](C)O)C(=O)N[C@@H](CCCCN)C(=O)N[C@@H](Cc1ccc(O)cc1)C(=O)N1CCC[C@H]1C(N)=O` [compound 17] (5FAM-QTE[pY]ATIKYP-NH2), for which the Kd on SHP2 N‐SH2 domain is above 3000 nM; on SHP2 C‐SH2 domain, 116 ± 7.7 nM.

For the molecule `CC[C@H](C)[C@H](NC(=O)[C@@H](NC(=O)[C@H](C)NC(=O)[C@H](Cc1ccc(OP(=O)(O)O)cc1)NC(=O)[C@H](CCC(=O)O)NC(=O)[C@@H](NC(=O)[C@H](CCC(N)=O)NC(=O)[C@H](C)NC(=O)c1ccc2c(c1)C(=O)OC21c2ccc(O)cc2Oc2cc(O)ccc21)[C@@H](C)O)[C@@H](C)O)C(=O)N[C@H](C(=O)N[C@@H](Cc1ccccc1)C(=O)N1CCC[C@H]1C(N)=O)C(C)C` [peptide 1] (5FAM-AQTE[pY]ATIVFP-NH2), the Kd at SHP2 N‐SH2 domain came out at 295 ± 37.2 nM; on SHP2 C‐SH2 domain it was 62 ± 1.98 nM.

As for `CC[C@H](C)[C@H](NC(=O)[C@@H](NC(=O)[C@H](C)NC(=O)[C@H](Cc1ccc(OP(=O)(O)O)cc1)NC(=O)[C@H](CCC(=O)O)NC(=O)[C@@H](NC(=O)[C@H](C)NC(=O)[C@H](CCC(=O)O)NC(=O)c1ccc2c(c1)C(=O)OC21c2ccc(O)cc2Oc2cc(O)ccc21)[C@@H](C)O)[C@@H](C)O)C(=O)N[C@H](C(=O)N[C@@H](Cc1ccccc1)C(=O)N1CCC[C@H]1C(N)=O)C(C)C` [peptide 2] (5FAM-EATE[pY]ATIVFP-NH2), the Kd at SHP2 N‐SH2 domain was 58 ± 4.6 nM; at SHP2 C‐SH2 domain, 51.3 ± 1.08 nM.

Consider `CC[C@H](C)[C@H](NC(=O)[C@@H](NC(=O)[C@H](C)NC(=O)[C@H](Cc1ccc(OP(=O)(O)O)cc1)NC(=O)[C@H](CCC(=O)O)NC(=O)[C@H](C)NC(=O)[C@H](CCC(N)=O)NC(=O)[C@H](CCC(=O)O)NC(=O)c1ccc2c(c1)C(=O)OC21c2ccc(O)cc2Oc2cc(O)ccc21)[C@@H](C)O)C(=O)N[C@H](C(=O)N[C@@H](Cc1ccccc1)C(=O)N1CCC[C@H]1C(N)=O)C(C)C` [peptide 3] (5FAM-EQAE[pY]ATIVFP-NH2), for which the Kd on SHP2 N‐SH2 domain stood at 428 ± 25.1 nM; at SHP2 C‐SH2 domain, 135 ± 4.6 nM.

In the case of `CC[C@H](C)[C@H](NC(=O)[C@@H](NC(=O)[C@H](C)NC(=O)[C@H](Cc1ccc(OP(=O)(O)O)cc1)NC(=O)[C@H](CCC(=O)O)NC(=O)[C@@H](NC(=O)[C@H](CCC(N)=O)NC(=O)c1ccc2c(c1)C(=O)OC21c2ccc(O)cc2Oc2cc(O)ccc21)[C@@H](C)O)[C@@H](C)O)C(=O)N[C@@H](CCCCN)C(=O)N[C@@H](Cc1c[nH]cn1)C(=O)N1CCC[C@H]1C(N)=O` [peptide 18] (5FAM-QTE[pY]ATIKHP-NH2), the Kd at SHP2 N‐SH2 domain is above 3000 nM; at SHP2 C‐SH2 domain, 88.2 ± 4.29 nM.
